Among the data in paper PMC7933130 (Nature, 2021) are Kd values, retold here.

This experiment concerns the target NaCT (Homo sapiens, UniProt Q86YT5). Put plainly: cryo-EM structure at […] Å. The experiment is classed as binding.

Sequence of NaCT (Q86YT5 whole entry): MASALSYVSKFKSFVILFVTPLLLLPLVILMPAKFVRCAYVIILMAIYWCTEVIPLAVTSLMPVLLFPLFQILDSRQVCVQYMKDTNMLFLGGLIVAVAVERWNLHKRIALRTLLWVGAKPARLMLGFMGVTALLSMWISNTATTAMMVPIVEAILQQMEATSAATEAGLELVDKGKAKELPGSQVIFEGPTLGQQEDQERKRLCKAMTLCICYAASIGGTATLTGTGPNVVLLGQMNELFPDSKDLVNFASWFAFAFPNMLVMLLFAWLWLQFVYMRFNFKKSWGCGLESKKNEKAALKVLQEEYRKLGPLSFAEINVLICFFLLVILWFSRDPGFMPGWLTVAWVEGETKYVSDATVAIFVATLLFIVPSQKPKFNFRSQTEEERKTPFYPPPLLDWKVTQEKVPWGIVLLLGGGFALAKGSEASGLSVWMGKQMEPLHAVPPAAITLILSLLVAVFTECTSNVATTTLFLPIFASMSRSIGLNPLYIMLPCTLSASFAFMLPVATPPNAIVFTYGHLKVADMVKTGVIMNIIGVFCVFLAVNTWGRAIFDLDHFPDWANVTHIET

For orientation: Kd means the equilibrium constant for the complex coming apart. Consider `O=C(O)CC(O)(CC(=O)O)C(=O)O` [citrate], for which the Kd amounted to 148 ± 28 µM.
